Patent US20210292347A1, “DIHETEROCYCLIC TRIAZINONE NUCLEOSIDE ANALOGS AND THEIR USE FOR MEDICATION” (priority 2020, published 2021)

Tested on: mice sarcoma S180
Test: Growth inhibition of S180 sarcoma in mice
Assay type: in vivo, Kunming healthy mice
Conditions: for in-vivo anti-tumor efficacy, statistical significance (in words): S180 sarcoma in mice, doses and routes of Table 3
[1] = Mus musculus, S-180, mice, ip, 100 mg/kg, read-out: Inhibition rate (%) S180 sarcoma
[2] = Mus musculus, S-180, mice, iv, read-out: Inhibition rate (%) S180 sarcoma
[3] = Mus musculus, S-180, mice, ip, read-out: Inhibition rate (%) S180 sarcoma

CN(C)CCC(=O)Nc1nn(O)c2c(=O)n(C3OC(CO)C(O)C3O)nnc12 (centres unmarked) [Example 16, N-(3-(3,4-dihydroxy-5-(hydroxymethyl)tetrahydrofuran-2-yl)-5-hydroxy-4-oxo-4,5-dihydro-3H-pyrazolo[4,3-d][1,2,3]triazin-7-yl)-3-(dimethylamino) propanamide]
Inhibition rate (%) S180 sarcoma (mice, ip, 100 mg/kg): + (+ represent of Inhibition rate % <20)

CCOP(=O)(OCC)C(Nc1nn(CO)c2c(=O)n(C3CCC(CO)O3)nnc12)C(=O)O (centres unmarked) [Example 81, 2-(diethoxyphosphoryl)-2-((5-(hydroxymethyl)-3-(5-(hydroxymethyl)tetrahydrofuran-2-yl)-4-oxo-4,5-dihydro-3H-pyrazolo[4,3-d][1,2,3]triazin-7-yl)amino)acetic acid]
inhibition in vivo at 100 mg/kg [1]: < 40%
in-vivo anti-tumor efficacy, statistical significance (in words): statistically significant

CCOC(=O)c1nn(CC(N)=O)c2c(=O)n(C3OC(CO)C(O)C3O)nnc12 (centres unmarked) [Example 48, ethyl 5-(2-amino-2-oxoethyl)-3-(3,4-dihydroxy-5-(hydroxymethyl)tetrahydrofuran-2-yl)-4-oxo-4,5-dihydro-3H-pyrazolo[4,3-d][1,2,3]triazine-7-carboxylate]
inhibition in vivo at 50 mg/kg [2]: < 40%
in-vivo anti-tumor efficacy, statistical significance (in words): statistically significant

CCCc1nn(CC(N)=O)c2c(=O)n(C3OC(CO)C(O)C3O)nnc12 (centres unmarked) [Example 49, 2-(3-(3,4-dihydroxy-5-(hydroxymethyl)tetrahydrofuran-2-yl)-4-oxo-7-propyl-3H-pyrazolo [4,3-d][1,2,3]triazin-5(4H)-yl)acetamide]
inhibition in vivo at 100 mg/kg [1]: < 40%
in-vivo anti-tumor efficacy, statistical significance (in words): statistically significant

CCCc1nn(C)c2c(=O)n(C3OC(CO)C(O)C3O)nnc12 (centres unmarked) [Example 23, 3-(3,4-dihydroxy-5-(hydroxymethyl)tetrahydrofuran-2-yl)-5-methyl-7-propyl-3H-pyrazolo [4,3-d][1,2,3]triazin-4(5H)-one]
inhibition in vivo at 100 mg/kg [1]: < 40%
in-vivo anti-tumor efficacy, statistical significance (in words): statistically significant

CCCn1nnc2nnn(C3OC(CO)C(O)C3O)c(=O)c21 (centres unmarked) [Example 147, 6-(3,4-dihydroxy-5-(hydroxymethyl)tetrahydrofuran-2-yl)-1-propyl-1H-[1,2,3]triazolo[4,5-d][1,2,3]triazin-7(6H)-one]
inhibition in vivo at 300 mg/kg (Mus musculus, S-180, mice, ip, 300 mg/kg, read-out: Inhibition rate (%) S180 sarcoma): < 20%

CCCn1nnc2c(=O)n(C3OC(CO)C(O)C3O)nnc21 (centres unmarked) [Example 151, 6-(3,4-dihydroxy-5-(hydroxymethyl)tetrahydrofuran-2-yl)-3-propyl-3H-[1,2,3]triazolo[4,5-d][1,2,3]triazin-7(6H)-one]
inhibition in vivo at 200 mg/kg [3]: < 20%

CC(=O)O[C@H]1C(=O)[C@@]2(C)[C@H]([C@H](OC(=O)c3ccccc3)[C@]3(O)C[C@H](OC(=O)[C@H](O)[C@@H](NC(=O)c4ccccc4)c4ccccc4)C(C)=C1C3(C)C)[C@]1(OC(C)=O)CO[C@@H]1C[C@@H]2O [Taxol, Paclitaxel, reference compound]
inhibition in vivo at 20 mg/kg (Mus musculus, S-180, mice, ip, 20 mg/kg, read-out: Inhibition rate (%) S180 sarcoma): < 40%

CN(C)CCC(=O)Nc1nn(C(N)=O)c2c(=O)n(C3CSC(CO)O3)nnc12 (centres unmarked) [Example 99, 7-(3-(dimethylamino)propanamido)-3-(2-(hydroxymethyl)-1,3-oxathiolan-5-yl)-4-oxo-3H-pyrazolo[4,3-d][1,2,3]triazine-5(4H)-carboxamide]
inhibition in vivo at 150 mg/kg (Mus musculus, S-180, mice, ip, 150 mg/kg, read-out: Inhibition rate (%) S180 sarcoma): < 20%

CCCc1nn(C(=N)N)c2c(=O)n(C3CSC(CO)O3)nnc12 (centres unmarked) [Example 100, 3-(2-(hydroxymethyl)-1,3-oxathiolan-5-yl)-4-oxo-7-propyl-3H-pyrazolo[4,3-d][1,2,3]triazine-5(4H)-carboximidamide]
inhibition in vivo at 100 mg/kg [1]: < 40%
in-vivo anti-tumor efficacy, statistical significance (in words): statistically significant

CCCc1nn(C(N)=O)c2c(=O)n(C3OC(CO)C(O)C3O)nnc12 (centres unmarked) [Example 55, 3-(3,4-dihydroxy-5-(hydroxymethyl)tetrahydrofuran-2-yl)-4-oxo-7-propyl-3H-pyrazolo [4,3-d][1,2,3]triazine-5(4H)-carboxamide]
inhibition in vivo at 100 mg/kg [1]: < 40%
in-vivo anti-tumor efficacy, statistical significance (in words): statistically significant

NC(=O)n1nc([N+](=O)[O-])c2nnn(C3OC(CO)C(O)C3O)c(=O)c21 (centres unmarked) [Example 60, 3-(3,4-dihydroxy-5-(hydroxymethyl)tetrahydrofuran-2-yl)-7-nitro-4-oxo-3H-pyrazolo[4,3-d][1,2,3]triazine-5(4H)-carboxamide]
inhibition in vivo at 15 mg/kg [2]: < 40%
in-vivo anti-tumor efficacy, statistical significance (in words): statistically significant

Cn1nc(C#N)c2nnn(C3OC(CO)C(O)C3O)c(=O)c21 (centres unmarked) [Example 26, 3-(3,4-dihydroxy-5-(hydroxymethyl)tetrahydrofuran-2-yl)-5-methyl-4-oxo-4,5-dihydro-3H-pyrazolo[4,3-d][1,2,3]triazine-7-carbonitrile]
inhibition in vivo at 70 mg/kg (Mus musculus, S-180, mice, ip, 70 mg/kg, read-out: Inhibition rate (%) S180 sarcoma): < 40%
in-vivo anti-tumor efficacy, statistical significance (in words): statistically significant

CCCn1nnc2c(=O)n(C3CCC(COC(C(=O)O)P(=O)(NC(C)C)NC(C)C)O3)nnc21 (centres unmarked) [Example 154, 2-(bis(isopropylamino)phosphoryl)-2-((5-(7-oxo-3-propyl-3H-[1,2,3]triazolo[4,5-d][1,2,3]triazin-6(7H)-yl)tetrahydrofuran-2-yl)methoxy)acetic acid]
inhibition in vivo at 100 mg/kg [1]: < 20%

COc1ccc(C(=O)Nc2nn(O)c3c(=O)n(C4OC(CO)C(O)C4O)nnc23)cc1 (centres unmarked) [Example 20, N-(3-(3,4-dihydroxy-5-(hydroxymethyl)tetrahydrofuran-2-yl)-5-hydroxy-4-oxo-4,5-dihydro-3H-pyrazolo[4,3-d][1,2,3]triazin-7-yl)-4-methoxybenzamide]
inhibition in vivo at 200 mg/kg [3]: < 20%

CCOP(=O)(OCC)C(Nc1nn(C)c2c(=O)n(C3CSC(CO)O3)nnc12)C(=O)O (centres unmarked) [Example 90, 2-(diethoxyphosphoryl)-2-((3-(2-(hydroxymethyl)-1,3-oxathiolan-5-yl)-5-methyl-4-oxo-4,5-dihydro-3H-pyrazolo[4,3-d][1,2,3]triazin-7-yl)amino)acetic acid]
inhibition in vivo at 30 mg/kg (Mus musculus, S-180, mice, iv, 30 mg/kg, read-out: Inhibition rate (%) S180 sarcoma): < 20%

CCCc1nn(C2CC2)c2c(=O)n(C3OC(CO)C(O)C3O)nnc12 (centres unmarked) [Example 40, 5-cyclopropyl-3-(3,4-dihydroxy-5-(hydroxymethyl)tetrahydrofuran-2-yl)-7-propyl-3H-pyrazolo[4,3-d][1,2,3]triazin-4(5H)-one]
inhibition in vivo at 50 mg/kg [2]: < 20%

CN(C)CCC(=O)Nc1nn(CC(N)=O)c2c(=O)n(COC(CO)CO)nnc12 [Example 129, N-(5-(2-amino-2-oxoethyl)-3-(((1,3-dihydroxypropan-2-yl)oxy)methyl)-4-oxo-4,5-dihydro-3H-pyrazolo[4,3-d][1,2,3]triazin-7-yl)-3-(dimethylamino) propanamide]
inhibition in vivo at 100 mg/kg [1]: < 20%

CCCc1nn(C)c2c(=O)n(C3OC(COC(C(=O)O)P(=O)(NC(C)C)NC(C)C)C(O)C3O)nnc12 (centres unmarked) [Example 106, 2-(bis(isopropylamino)phosphoryl)-2-((3,4-dihydroxy-5-(5-methyl-4-oxo-7-propyl-4,5-dihydro-3H-pyrazolo [4,3-d][1,2,3]triazin-3-yl)tetrahydrofuran-2-yl)methoxy)acetic acid]
inhibition in vivo at 50 mg/kg [2]: < 20%

CCOC(=O)c1nn(C)c2c(=O)n(C3OC(CO)C(O)C3O)nnc12 (centres unmarked) [Example 22, ethyl 3-(3,4-dihydroxy-5-(hydroxymethyl)tetrahydrofuran-2-yl)-5-methyl-4-oxo-4,5-dihydro-3H-pyrazolo[4,3-d][1,2,3]triazine-7-carboxylate]
inhibition in vivo at 200 mg/kg [3]: < 40%
in-vivo anti-tumor efficacy, statistical significance (in words): statistically significant

Cn1nc(N2CCCCC2)c2nnn(C3OC(CO)C(O)C3O)c(=O)c21 (centres unmarked) [Example 27, 3-(3,4-dihydroxy-5-(hydroxymethyl)tetrahydrofuran-2-yl)-5-methyl-7-(piperidin-1-yl)-3H-pyrazolo[4,3-d][1,2,3]triazin-4(5H)-one]
inhibition in vivo at 15 mg/kg [2]: < 20%

CCCc1nn(CO)c2c(=O)n(C3OC(CO)C(O)C3O)nnc12 (centres unmarked) [Example 31, 3-(3,4-dihydroxy-5-(hydroxymethyl)tetrahydrofuran-2-yl)-5-(hydroxymethyl)-7-propyl-3H-pyrazolo[4,3-d][1,2,3]triazin-4(5H)-one]
inhibition in vivo at 100 mg/kg [1]: < 40%
in-vivo anti-tumor efficacy, statistical significance (in words): statistically significant

COc1ccc(C(=O)Nc2nn(C)c3c(=O)n(C4OC(CO)C(O)C4O)nnc23)cc1 (centres unmarked) [Example 29, N-(3-(3,4-dihydroxy-5-(hydroxymethyl)tetrahydrofuran-2-yl)-5-methyl-4-oxo-4,5-dihydro-3H-pyrazolo[4,3-d][1,2,3]triazin-7-yl)-4-methoxybenzamide]
inhibition in vivo at 15 mg/kg [2]: < 20%

CCCc1nn(C(N)=S)c2c(=O)n(C3CCC(CO)O3)nnc12 (centres unmarked) [Example 86, 3-(5-(hydroxymethyl)tetrahydrofuran-2-yl)-4-oxo-7-propyl-3H-pyrazolo[4,3-d][1,2,3]triazine-5(4H)-carbothioamide]
inhibition in vivo at 200 mg/kg [3]: < 20%

CCCc1nn(C(N)=S)c2c(=O)n(C3OC(CO)C(O)C3O)nnc12 (centres unmarked) [Example 74, 3-(3,4-dihydroxy-5-(hydroxymethyl)tetrahydrofuran-2-yl)-4-oxo-7-propyl-3H-pyrazolo[4,3-d][1,2,3]triazine-5(4H)-carbothioamide]
inhibition in vivo at 200 mg/kg [3]: < 40%
in-vivo anti-tumor efficacy, statistical significance (in words): statistically significant

CCCc1nn(CC(N)=O)c2c(=O)n(C3CSC(CO)O3)nnc12 (centres unmarked) [Example 95, 2-(3-(2-(hydroxymethyl)-1,3-oxathiolan-5-yl)-4-oxo-7-propyl-3H-pyrazolo[4,3-d][1,2,3]triazin-5(4H)-yl)acetamide]
inhibition in vivo at 50 mg/kg [2]: < 40%
in-vivo anti-tumor efficacy, statistical significance (in words): statistically significant
